In patent publication US20220323406A1, “METHODS AND COMPOSITIONS FOR DIFFERENTIATING STEM CELLS” (Massachusetts Institute of Technology, priority 2019, published 2022):

Legend:
ENR+CD organoids = test: Primary screen: ATP (CellTiter-Glo 3D, CTG) cell number/viability, 2.5-D 384-well ENR+CD organoids;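 further: compounds given at plating and again on day 3 over a 6-day differentiation from ENR+CV stem-cell-enriched precursors, ATP measured on day 6, plate median as control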
[1] = tested on: ENR+CD organoids (ISC to Paneth cell differentiation); test: Primary screen: CCh-stimulated lysozyme secretion LYZ.S, 2.5-D 384-well ENR+CD organoid differentiation; assay type: cell-based, mouse; settings: primary screen
Text: (§1) High-throughput screening.

[2] = tested on: ENR+CD organoids (ISC to Paneth cell differentiation); test: Primary screen: basal (non-stimulated) lysozyme secretion LYZ.NS, 2.5-D 384-well ENR+CD organoid differentiation; assay type: cell-based, mouse
Text: as §1

[3] = primary screen, standard z score, dose 0.08 uM
[4] = primary screen, standard z score, dose 0.40 uM
[5] = primary screen, standard z score, dose 2.00 uM
[6] = primary screen, standard z score, dose 10.00 uM
[7] = primary screen, dose 0.08 uM, FC relative to plate median
[8] = primary screen, dose 0.08 uM, standard z score
[9] = primary screen, dose 0.40 uM, FC relative to plate median
[10] = primary screen, dose 0.40 uM, standard z score
[11] = primary screen, dose 2.00 uM, FC relative to plate median
[12] = primary screen, dose 2.00 uM, standard z score
[13] = primary screen, dose 10.00 uM, FC relative to plate median
[14] = primary screen, dose 10.00 uM, standard z score
[15] = dose 0.08 uM, FC relative to plate median
[16] = dose 0.40 uM, FC relative to plate median
[17] = dose 2.00 uM, FC relative to plate median
[18] = dose 10.00 uM, FC relative to plate median

In the case of `CC(C)c1ccc(NC(=O)Cn2cnc3c2c(=O)n(C)c(=O)n3C)cc1` [HC-030031], the “Dose.FC.CTG (log2 fold change)” value (ENR+CD organoids; primary screen, dose 0.08 uM) is reported as 0.082, the “Z.CTG (standard z score)” value (ENR+CD organoids; primary screen, dose 0.08 uM) is reported as 0.195 and the “Dose.FC.CTG (log2 fold change)” value (ENR+CD organoids; primary screen, dose 0.40 uM) is reported as 0.191. The “Z.CTG (standard z score)” value (ENR+CD organoids; primary screen, dose 0.40 uM) was 0.457, the “Dose.FC.CTG (log2 fold change)” value (ENR+CD organoids; primary screen, dose 2.00 uM) was −0.008 and the “Z.CTG (standard z score)” value (ENR+CD organoids; primary screen, dose 2.00 uM) was −0.019. For the same compound, the “Dose.FC.CTG (log2 fold change)” value (ENR+CD organoids; primary screen, dose 10.00 uM) was −0.241, the “Z.CTG (standard z score)” value (ENR+CD organoids; primary screen, dose 10.00 uM) was −0.575 and the “Dose.FC.LYZ.S (log2 fold change)” value ([1]; dose 0.08 uM) was 0.090. For the same compound, the “Dose.FC.LYZ.S (log2 fold change)” value ([1]; dose 0.40 uM) was 0.097, the “Dose.FC.LYZ.S (log2 fold change)” value ([1]; dose 2.00 uM) was −0.035 and the “Dose.FC.LYZ.S (log2 fold change)” value ([1]; dose 10.00 uM) was 0.077. For the same compound, the “Dose.FC.LYZ.NS (log2 fold change)” value ([2]; primary screen, dose 0.08 uM) was 0.063, the “Z.LYZ.NS (standard z score)” value ([2]; primary screen, dose 0.08 uM) was 0.547 and the “Dose.FC.LYZ.NS (log2 fold change)” value ([2]; primary screen, dose 0.40 uM) was 0.033. For the same compound, the “Z.LYZ.NS (standard z score)” value ([2]; primary screen, dose 0.40 uM) was 0.291, the “Dose.FC.LYZ.NS (log2 fold change)” value ([2]; primary screen, dose 2.00 uM) was −0.007 and the “Z.LYZ.NS (standard z score)” value ([2]; primary screen, dose 2.00 uM) was −0.057. The “Dose.FC.LYZ.NS (log2 fold change)” value ([2]; primary screen, dose 10.00 uM) was −0.047 and the “Z.LYZ.NS (standard z score)” value ([2]; primary screen, dose 10.00 uM) was −0.411.
Compound `CS(=O)(=O)N1CCN(Cc2cc3nc(-c4cccc5[nH]ncc45)nc(N4CCOCC4)c3s2)CC1` [GDC-0941] has a Dose.FC.CTG (ENR+CD organoids; primary screen, dose 0.08 uM) of 0.283 log2 fold change, a Dose.FC.CTG (ENR+CD organoids; primary screen, dose 0.40 uM) of 0.022 log2 fold change and a Dose.FC.CTG (ENR+CD organoids; primary screen, dose 2.00 uM) of −0.197 log2 fold change. For the same compound, the Dose.FC.CTG (ENR+CD organoids; primary screen, dose 10.00 uM) was −1.223 log2 fold change, the Z.CTG (ENR+CD organoids; [3]) was 0.677 and the Z.CTG (ENR+CD organoids; [4]) was 0.053. For the same compound, the Z.CTG (ENR+CD organoids; [5]) was −0.472, the Z.CTG (ENR+CD organoids; [6]) was −2.921 and the Dose.FC.LYZ.S ([1]; dose 0.08 uM) was 0.018 log2 fold change. For the same compound, the Dose.FC.LYZ.S ([1]; dose 0.40 uM) was −0.076 log2 fold change, the Dose.FC.LYZ.S ([1]; dose 2.00 uM) was −0.248 log2 fold change and the Dose.FC.LYZ.S ([1]; dose 10.00 uM) was −0.257 log2 fold change. It also gave a Dose.FC.LYZ.NS ([2]; primary screen, dose 0.08 uM) of 0.008 log2 fold change, a Dose.FC.LYZ.NS ([2]; primary screen, dose 0.40 uM) of −0.013 log2 fold change and a Dose.FC.LYZ.NS ([2]; primary screen, dose 2.00 uM) of −0.128 log2 fold change. It also gave a Dose.FC.LYZ.NS ([2]; primary screen, dose 10.00 uM) of −0.156 log2 fold change, a Z.LYZ.NS [2, 3] of 0.070 and a Z.LYZ.NS [2, 4] of −0.112. It also gave a Z.LYZ.NS [2, 5] of −1.113 and a Z.LYZ.NS [2, 6] of −1.362.
In the case of `O=C(c1ccc(F)cc1)N1CCC[C@H](c2nc(-c3ccc(F)cc3)no2)C1` [ADX-47273], the Dose.FC.CTG (ENR+CD organoids; primary screen, dose 0.08 uM) is reported as 0.115 log2 fold change, the “Z.CTG (standard z score)” value (ENR+CD organoids; primary screen, dose 0.08 uM) is reported as 0.274 and the Dose.FC.CTG (ENR+CD organoids; primary screen, dose 0.40 uM) is reported as −0.034 log2 fold change. For the same compound, the “Z.CTG (standard z score)” value (ENR+CD organoids; primary screen, dose 0.40 uM) was −0.082, the Dose.FC.CTG (ENR+CD organoids; primary screen, dose 2.00 uM) was −0.210 log2 fold change and the “Z.CTG (standard z score)” value (ENR+CD organoids; primary screen, dose 2.00 uM) was −0.501. For the same compound, the Dose.FC.CTG (ENR+CD organoids; primary screen, dose 10.00 uM) was −0.039 log2 fold change, the “Z.CTG (standard z score)” value (ENR+CD organoids; primary screen, dose 10.00 uM) was −0.094 and the Dose.FC.LYZ.S ([1]; dose 0.08 uM) was 0.147 log2 fold change. For the same compound, the Dose.FC.LYZ.S ([1]; dose 0.40 uM) was 0.147 log2 fold change, the Dose.FC.LYZ.S ([1]; dose 2.00 uM) was −0.039 log2 fold change and the Dose.FC.LYZ.S ([1]; dose 10.00 uM) was −0.070 log2 fold change. For the same compound, the Dose.FC.LYZ.NS ([2]; primary screen, dose 0.08 uM) was 0.269 log2 fold change, the “Z.LYZ.NS (standard z score)” value ([2]; primary screen, dose 0.08 uM) was 2.346 and the Dose.FC.LYZ.NS ([2]; primary screen, dose 0.40 uM) was 0.053 log2 fold change. The “Z.LYZ.NS (standard z score)” value ([2]; primary screen, dose 0.40 uM) was 0.457, the Dose.FC.LYZ.NS ([2]; primary screen, dose 2.00 uM) was −0.033 log2 fold change and the “Z.LYZ.NS (standard z score)” value ([2]; primary screen, dose 2.00 uM) was −0.286. The Dose.FC.LYZ.NS ([2]; primary screen, dose 10.00 uM) was −0.036 log2 fold change and the “Z.LYZ.NS (standard z score)” value ([2]; primary screen, dose 10.00 uM) was −0.311.
`CNC(=O)c1ccccc1Nc1nc(Nc2ccc(N3CCOCC3)cc2OC)ncc1Cl` [TAE226 (NVP-TAE226)] was tested, and the Dose.FC.CTG (ENR+CD organoids; [7]) was −0.472 log2 fold change, the Z.CTG (ENR+CD organoids; [8]) was −1.127 and the Dose.FC.CTG (ENR+CD organoids; [9]) was −1.126 log2 fold change. The Z.CTG (ENR+CD organoids; [10]) was −2.689, the Dose.FC.CTG (ENR+CD organoids; [11]) was −1.284 log2 fold change and the Z.CTG (ENR+CD organoids; [12]) was −3.068. For the same compound, the Dose.FC.CTG (ENR+CD organoids; [13]) was −0.989 log2 fold change, the Z.CTG (ENR+CD organoids; [14]) was −2.363 and the Dose.FC.LYZ.S [1, 15] was −0.333 log2 fold change. It also gave a Dose.FC.LYZ.S [1, 16] of −0.376 log2 fold change, a Dose.FC.LYZ.S [1, 17] of −0.400 log2 fold change and a Dose.FC.LYZ.S [1, 18] of −0.426 log2 fold change. For the same compound, the Dose.FC.LYZ.NS [2, 7] was −0.256 log2 fold change, the Z.LYZ.NS [2, 8] was −2.226 and the Dose.FC.LYZ.NS [2, 9] was −0.304 log2 fold change. The Z.LYZ.NS [2, 10] was −2.650, the Dose.FC.LYZ.NS [2, 11] was −0.323 log2 fold change and the Z.LYZ.NS [2, 12] was −2.813. For the same compound, the Dose.FC.LYZ.NS [2, 13] was −0.292 log2 fold change and the Z.LYZ.NS [2, 14] was −2.545.
`O=C(Nc1ccccc1-c1cn2c(CN3CCNCC3)csc2n1)c1cnc2ccccc2n1` [SRT1720] was tested, and the Dose.FC.CTG (ENR+CD organoids; [7]) was 0.529 log2 fold change, the Z.CTG (ENR+CD organoids; [8]) was 1.264 and the Dose.FC.CTG (ENR+CD organoids; [9]) was 0.394 log2 fold change. It also gave a Z.CTG (ENR+CD organoids; [10]) of 0.940, a Dose.FC.CTG (ENR+CD organoids; [11]) of 0.339 log2 fold change and a Z.CTG (ENR+CD organoids; [12]) of 0.810. The Dose.FC.CTG (ENR+CD organoids; [13]) was −1.016 log2 fold change, the Z.CTG (ENR+CD organoids; [14]) was −2.427 and the Dose.FC.LYZ.S [1, 15] was 0.190 log2 fold change. It also gave a Dose.FC.LYZ.S [1, 16] of 0.099 log2 fold change, a Dose.FC.LYZ.S [1, 17] of 0.051 log2 fold change and a Dose.FC.LYZ.S [1, 18] of −0.193 log2 fold change. For the same compound, the Dose.FC.LYZ.NS [2, 7] was 0.172 log2 fold change, the Z.LYZ.NS [2, 8] was 1.495 and the Dose.FC.LYZ.NS [2, 9] was 0.112 log2 fold change. For the same compound, the Z.LYZ.NS [2, 10] was 0.972, the Dose.FC.LYZ.NS [2, 11] was 0.070 log2 fold change and the Z.LYZ.NS [2, 12] was 0.613. It also gave a Dose.FC.LYZ.NS [2, 13] of −0.104 log2 fold change and a Z.LYZ.NS [2, 14] of −0.906.
